26 compounds from patent US20260028352A1, “MACROCYCLIC IMIDAZO [1,2-B] PYRIDAZINE DERIVATIVE, PREPARATION METHOD THEREFOR, AND USE THEREOF” (SUZHOU LANGRUI BIOPHARMACEUTICAL CO., LTD., priority 2022, published 2026) can be followed below.

The assay concerns Ba/F3-TPM3-NTRK1-G667C cells. The assay is described as follows: Growth inhibition of Ba/F3-TPM3-NTRK1-G667C cells (Cell Titer-Glo). The note with it: 72 hours, CTG; read-out: inhibitory activity IC50 Ba/F3-TPM3-NTRK1-G667C. Type of assay: cell-based. The protocol:
Then the solutions were subjected to a gradient dilution with DMSO: a clean, sterile V-bottom 96-well microplate was placed in the biological safety cabinet. First, 4 μL of DMSO was added to well B2 and 10 μL of DMSO was added to wells B3-B11 respectively; Next, 6 μL of the 10 mM solution was added to well B2. The microplate was pipetted up and down 10 times for mixing. […] Mixing was performed by pipetting up and down 10 times. The solution was diluted in order until well B10. only DMSO was added to well B11 (no compound).
6× Compound Solution Preparation (6-fold dilution, × represents dilution factor): (Initial final concentration: 10 μM), a clean, sterile V-bottom 96-well microplate was placed in the biological safety cabinet. 99 μL of cell culture medium was added to each well from B2 to G11. By using a 12-channel pipettor, 1 μL of the compound solution prepared in the previous step was added into the corresponding wells. The solutions were pipetted up and down 10 times to mix the solutions. The highest concentration of compound in this step was 60 μM.
Treatment of Cells: the above-prepared cell culture plate was taken out of the incubator. 20 μL of compound solution from each well was added to the corresponding cell culture wells. The lowest pipetting speed was used and touching the bottom of the plate was avoided. The culture plate was gently shaked to mix the compound solution, then the plate was returned to the incubator for further culture for 72 hours.
The highest treatment concentration of the compound was 10 μM. After 72 hours of treatment, the Cell Titer-Glo (CTG) assay was performed. First, the cell culture plate was removed from the CO2 incubator and allowed to stand at room temperature for 30 minutes to ensure uniform temperature of the plate. The pre-prepared Cell Titer-Glo reagent (following the manufacturer's instructions) was taken and allowed to stand at room temperature to thaw. 60 μL of Cell Titer-Glo reagent was added to each well containing cells. The cells were incubated on a horizontal shaker in a dark place at 225 rpm for 1 hour at room temperature. Then, a Tecan Spark microplate reader was used to read the plate using chemiluminescence according to the manufacturer's instructions.
(In general: In ATP-based viability assays light output follows the ATP content of the culture.)

The structures appear in SMILES notation.

On to `C[C@H]1Nc2ccc3ncc(n3n2)-c2cc(ncn2)COc2ncc(F)cc21` [Example I-77, (6R,E)-5^5-fluoro-6-methyl-4-oxa-7-aza-1(3,6)-imidazo[1,2-b]pyridazina-2(4,6)-pyrimidina-5(2,3)-pyridinacycloheptaphane], for which the IC50 is below 100 nM.

In the case of `Fc1cnc2c(c1)[C@H]1CCCN1c1ccc3ncc(n3n1)-c1nccc(n1)CO2` [Example I-63, (14bR,E)-13-fluoro-14b,15,16,17-tetrahydro-9H-4,8-(azeno)-1,19-etheno imidazo[1,5-h]pyrido[2,3-b]pyrrolo[2,1-d][1]oxa[5,7,8,11]tetraazacyclopentadecine], the IC50 was below 100 nM. The same measure for `C[C@H]1Nc2ccc3ncc(n3n2)-c2cc(ccn2)N2CCC[C@@H](C2)Oc2ccc(F)cc21` [Example I-44, (3^3S,6R,E)-5^4-fluoro-6-methyl-4-oxa-7-aza-1(3,6)-imidazo[1,2-b]pyridazina-2(2,4)-pyridina-3(1,3)-piperidina-5(1,2)-benzenacycloheptaphane]: below 100 nM; for `CC1(C)Nc2ccc3ncc(n3n2)-c2cc(ccn2)COc2ccc(F)cc21` [Example I-48, (E)-5^4-fluoro-6,6-dimethyl-4-oxa-7-aza-1(3,6)-imidazo[1,2-b]pyridazina-2(2,4)-pyridina-5(1,2)-benzenacycloheptaphane]: below 100 nM. Under `C[C@@H]1Cc2ccnc(c2)-c2cnc3ccc(nn23)N2CCC[C@@H]2c2cc(F)cnc2O1` [Example I-38, (3^2R,6R,E)-4^5-fluoro-6-methyl-5-oxa-2(3,6)-imidazo[1,2-b]pyridazina-1(2,4),4(3,2)-dipyridina-3(1,2)-pyrrolidinacycloheptaphane] stands below 100 nM. Consider `Fc1ccc2c(c1)C1(CC1)Nc1ccc3ncc(n3n1)-c1cc(ccn1)CO2` [Example I-47, (E)-4′-fluorospiro[cyclopropane-1,6′-4-oxa-7-aza-1(3,6)-imidazo[1,2-b]pyridazina-2(2,4)-pyridina-5(1,2)-benzenacycloheptaphane]], for which the IC50 was below 100 nM. For the compound `Fc1cnc2c(c1)[C@H]1CCCN1c1ccc3ncc(n3n1)-c1cc(cnn1)CO2` [Example I-67, (14bR,E)-13-fluoro-14b,15,16,17-tetrahydro-9H-1,19-etheno-4,8-(metheno)imidazo[5,1-h]pyrido[3,2-n]pyrrolo[1,2-l][1]oxa[5,6,9,10,12]pentaazacyclopentadecine], the IC50 was below 100 nM. Take `C[C@H]1Nc2ccc3ncc(n3n2)-c2cc(cnn2)COc2ncc(F)cc21` [Example I-81, (6R,E)-5^5-fluoro-6-methyl-4-oxa-7-aza-1(3,6)-imidazo[1,2-b]pyridazina-2(3,5)-pyridazina-5(2,3)-pyridinacycloheptaphane]: the IC50 was below 100 nM. Turning to `C[C@H]1Nc2ccc3ncc(n3n2)-c2cc(ncn2)COc2ccc(F)cc21` [Example I-78, (6R,E)-5^4-fluoro-6-methyl-4-oxa-7-aza-1(3,6)-imidazo[1,2-b]pyridazina-2(4,6)-pyrimidina-5(1,2)-benzenacycloheptaphane], the IC50 was below 100 nM. In the case of `C[C@H]1Nc2ccc3ncc(n3n2)-c2cc(ccn2)CCOc2ncc(F)cc21` [Example I-75, (4R,E)-5^5-fluoro-4-methyl-6-oxa-3-aza-2(3,6)-imidazo[1,2-b]pyridazina-1(2,4), 5(3,2)-dipyridinacyclooctaphane], the IC50 is below 100 nM.

For the compound `C[C@@H]1Cc2cc(ncn2)-c2cnc3ccc(nn23)N[C@H](C)c2cc(F)ccc2O1` [Example I-35, (4R,7R,E)-5^5-fluoro-4,7-dimethyl-6-oxa-3-aza-2(3,6)-imidazo[1,2-b]pyridazina-1(4,6)-pyrimidina-5(1,2)-benzenacyclooctaphane], the IC50 was below 100 nM. Turning to `Fc1cnc2c(c1)[C@H]1CCCN1c1ccc3ncc(n3n1)-c1cc(ccn1)CCO2` [Example I-55, (3^2R,E)-4^5-fluoro-5-oxa-2(3,6)-imidazo[1,2-b]pyridazina-1(2,4),4(3,2)-dipyridina-3(1,2)-pyrrolidinacycloheptaphane], the IC50 is below 100 nM.

Consider `Fc1cnc2c(c1)[C@H]1CCCN1c1ccc3ncc(n3n1)-c1cc(ccn1)CO2` [Example I-51, (14bR,E)-13-fluoro-14b,15,16,17-tetrahydro-9H-1,19-etheno-4,8-(metheno)imidazo[1,5-h]pyrido[2,3-b]pyrrolo[2,1-d][1]oxa[5,7,8,11]tetraazacyclopentadecine], for which the IC50 was below 100 nM. Under `Fc1ccc2c(c1)[C@H]1CCCN1c1ccc3ncc(n3n1)-c1nccc(n1)CO2` [Example I-61, (14bR,E)-13-fluoro-14b,15,16,17-tetrahydro-9H-4,8-(azeno)-1,19-etheno benzo[b]imidazo[1,5-h]pyrrolo[2,1-d][1]oxa[5,7,8,11]tetraazacyclopentadecine] stands below 100 nM; under `Fc1ccc2c(c1)[C@H]1CCCN1c1ccc3ncc(n3n1)-c1cc(cnn1)CO2` [Example I-65, (14bR,E)-13-fluoro-14b,15,16,17-tetrahydro-9H-1,19-etheno-4,8-(metheno)benzo[n]imidazo[5,1-h]pyrrolo[1,2-l][1]oxa[5,6,9,10,12]pentaazacyclopentadecine], below 100 nM; under `C[C@@H]1Cc2ccnc(c2)-c2cnc3ccc(nn23)N2CCC[C@@H]2c2cc(F)ccc2O1` [Example I-37, (3^2R,6R,E)-4^5-fluoro-6-methyl-5-oxa-2(3,6)-imidazo[1,2-b]pyridazina-1(2,4)-pyridina-3(1,2)-pyrrolidina-4(1,2)-benzenacycloheptaphane], below 100 nM. The same measure for `Fc1cnc2c(c1)[C@H]1CCCN1c1ccc3ncc(n3n1)-c1nccc(n1)CCO2` [Example I-87, (3^2R,E)-4^5-fluoro-5-oxa-2(3,6)-imidazo[1,2-b]pyridazina-1(2,4)-pyrimidina-4(3,2)-pyridina-3(1,2)-pyrrolidinacycloheptaphane]: below 100 nM; for `Fc1ccc2c(c1)[C@H]1CCCN1c1ccc3ncc(n3n1)-c1nccc(n1)CCO2` [Example I-85, (3^2R,E)-4^5-fluoro-5-oxa-2(3,6)-imidazo[1,2-b]pyridazina-1(2,4)-pyrimidina-3(1,2)-pyrrolidina-4(1,2)-benzenacycloheptaphane]: below 100 nM.

`Fc1cnc2c(c1)[C@H]1CCCN1c1ccc3ncc(n3n1)-c1cc(ncn1)CCO2` [Example I-71, (3^2R,E)-4^5-fluoro-5-oxa-2(3,6)-imidazo[1,2-b]pyridazina-1(4,6)-pyrimidina-4(3,2)-pyridina-3(1,2)-pyrrolidinacycloheptaphane]: the IC50 is below 100 nM. Turning to `C[C@H]1Nc2ccc3ncc(n3n2)-c2nccc(n2)CCOc2ccc(F)cc21` [Example I-84, (4R,E)-5^5-fluoro-4-methyl-6-oxa-3-aza-2(3,6)-imidazo[1,2-b]pyridazina-1(2,4)-pyrimidina-5(1,2)-benzenacyclooctaphane], the IC50 was below 100 nM.

`Fc1cnc2c(c1)[C@H]1CCCN1c1ccc3ncc(n3n1)-c1cc(ncn1)CO2` [Example I-59, (14bR,E)-13-fluoro-14b,15,16,17-tetrahydro-9H-1,19-etheno-4,8-(metheno)imidazo[5,1-h]pyrido[3,2-n]pyrrolo[1,2-l][1]oxa[4,6,9,10,12]pentaazacyclopentadecine]: the IC50 was below 100 nM. On to `C[C@H]1Nc2ccc3ncc(n3n2)-c2cc(ncn2)CCOc2ncc(F)cc21` [Example I-73, (4R,E)-5^5-fluoro-4-methyl-6-oxa-3-aza-2(3,6)-imidazo[1,2-b]pyridazina-1(4,6)-pyrimidina-5(3,2)-pyridinacyclooctaphane], for which the IC50 was below 100 nM. As to `C[C@@H]1Cc2ccnc(c2)-c2cnc3ccc(nn23)N[C@H](C)c2cc(F)ccc2O1` [Example I-34, (4R,7R,E)-5^5-fluoro-4,7-dimethyl-6-oxa-3-aza-2(3,6)-imidazo[1,2-b]pyridazina-1(2,4)-pyridina-5(1,2)-benzenacyclooctaphane], the IC50 is below 100 nM. The same measure for `C[C@H]1Nc2ccc3ncc(n3n2)-c2cc(cnn2)COc2ccc(F)cc21` [Example I-82, (6R,E)-54-fluoro-6-methyl-4-oxa-7-aza-1(3,6)-imidazo[1,2-b]pyridazina-2(3,5)-pyridazina-5(1,2)-benzenacycloheptaphane]: below 100 nM.

As for `C[C@H]1Nc2ccc3ncc(n3n2)-c2cc(ccn2)N2CC[C@H](C2)Oc2ccc(F)cc21` [Example I-41, (3^3R,6R,E)-5^4-fluoro-6-methyl-4-oxa-7-aza-1(3,6)-imidazo[1,2-b]pyridazina-2(2,4)-pyridina-3(1,3)-pyrrolidina-5(1,2)-benzenacycloheptaphane], the IC50 is below 100 nM. The same measure for `C[C@H]1Nc2ccc3ncc(n3n2)-c2nccc(n2)COc2ccc(F)cc21` [Example I-80, (6R,E)-5^4-fluoro-6-methyl-4-oxa-7-aza-1(3,6)-imidazo[1,2-b]pyridazina-2(2,4)-pyrimidina-5(1,2)-benzenacycloheptaphane]: below 100 nM.
